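Where inhibition never reached the appropriate level, the endpoint shown equals the highest concentration tested. Otherwise, values were interpolated linearly from a five-concentration, 48-hour dose response in 96-well plates. Abbreviation: GI50, concentration required for 50% inhibition of growth.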 The source made the active and inactive calls. Cut-off read from the data, not from the text of the source: active = GI50 up to about 1.1 µM and inactive = higher.
How the values were obtained:
Test in all cases: NCI-60 cell line screen, 48 h
TK-10 = system: TK-10
COLO 205 = system: COLO 205
SK-MEL-5 = system: SK-MEL-5
UACC-257 = system: UACC-257
SK-OV-3 = system: SK-OV-3
A498 = system: A498
SF-268 = system: SF-268
KM12 = system: KM12
T47D = system: T47D
HOP-92 = system: HOP-92
SK-MEL-28 = system: SK-MEL-28
HL-60 = system: HL-60
Malme-3M = system: Malme-3M
PC-3 = system: PC-3
SF-539 = system: SF-539
CCRF-CEM = system: CCRF-CEM
SN12C = system: SN12C
M14 = system: M14
U-251 = system: U-251
HCT-15 = system: HCT-15

SMILES	GI50 (TK-10)	GI50 (COLO 205)	GI50 (SK-MEL-5)	GI50 (UACC-257)	GI50 (SK-OV-3)	GI50 (A498)	GI50 (SF-268)	GI50 (KM12)	GI50 (T47D)	GI50 (HOP-92)	GI50 (SK-MEL-28)	GI50 (HL-60)	GI50 (Malme-3M)	GI50 (PC-3)	GI50 (SF-539)	GI50 (CCRF-CEM)	GI50 (SN12C)	GI50 (M14)	GI50 (U-251)	GI50 (HCT-15) [µM]
COCCOCCOC1=CC(=O)c2c(O)ccc(O)c2C1=O	2.93 µM (inactive)	0.296 µM (active)	0.173 µM (active)	0.397 µM (active)	> 10 µM (inactive)	2.67 µM (inactive)	2.59 µM (inactive)	1.83 µM (inactive)	1.82 µM (inactive)	2.18 µM (inactive)	1.54 µM (inactive)	0.505 µM (active)	0.149 µM (active)	2.48 µM (inactive)	2.07 µM (inactive)	1.41 µM (inactive)	1.96 µM (inactive)	0.971 µM (active)	–	–
CCCCC(CCCC)=NNC(=S)SC	17 µM (inactive)	36.4 µM (inactive)	16.1 µM (inactive)	24.9 µM (inactive)	> 100 µM (inactive)	39.4 µM (inactive)	34.3 µM (inactive)	–	20 µM (inactive)	38.6 µM (inactive)	37.2 µM (inactive)	20.7 µM (inactive)	13.1 µM (inactive)	40.1 µM (inactive)	26.2 µM (inactive)	–	34.2 µM (inactive)	17.3 µM (inactive)	29.6 µM (inactive)	34.2
CC(C)=C=CC(C)(C)NS(=O)(=O)NC(C)(C)C=C=C(C)C	> 100 µM (inactive)	> 100 µM (inactive)	> 100 µM (inactive)	> 100 µM (inactive)	> 100 µM (inactive)	> 100 µM (inactive)	89.3 µM (inactive)	> 100 µM (inactive)	15.7 µM (inactive)	> 100 µM (inactive)	> 100 µM (inactive)	28.2 µM (inactive)	> 100 µM (inactive)	81.1 µM (inactive)	> 100 µM (inactive)	–	> 100 µM (inactive)	> 100 µM (inactive)	> 100 µM (inactive)	> 100
CC1(C)CCCCCC(C)(CCCCCCCCCCCO)C1=O (centres undefined)	12.1 µM (inactive)	17.1 µM (inactive)	16.7 µM (inactive)	14 µM (inactive)	17.6 µM (inactive)	17.9 µM (inactive)	16.1 µM (inactive)	18.1 µM (inactive)	14.6 µM (inactive)	17.3 µM (inactive)	17.9 µM (inactive)	14.7 µM (inactive)	16 µM (inactive)	16.1 µM (inactive)	16.7 µM (inactive)	13 µM (inactive)	16.1 µM (inactive)	–	17 µM (inactive)	16.1
C=C(C)CCC1CCCCC(CN(C)C)C1=O (centres undefined)	> 100 µM (inactive)	> 100 µM (inactive)	> 100 µM (inactive)	> 100 µM (inactive)	> 100 µM (inactive)	> 100 µM (inactive)	> 100 µM (inactive)	> 100 µM (inactive)	> 100 µM (inactive)	> 100 µM (inactive)	> 100 µM (inactive)	> 100 µM (inactive)	–	> 100 µM (inactive)	> 100 µM (inactive)	> 100 µM (inactive)	> 100 µM (inactive)	> 100 µM (inactive)	> 100 µM (inactive)	> 100
COc1cc(NCc2ccc3n2-c2ccccc2OC3)cc(OC)c1OC	32.5 µM (inactive)	12.9 µM (inactive)	15.6 µM (inactive)	20.1 µM (inactive)	–	13.5 µM (inactive)	46.5 µM (inactive)	40.7 µM (inactive)	37.2 µM (inactive)	11 µM (inactive)	38.3 µM (inactive)	17.7 µM (inactive)	15.1 µM (inactive)	22.8 µM (inactive)	–	12.6 µM (inactive)	17.5 µM (inactive)	31 µM (inactive)	18.4 µM (inactive)	29.9
CCN1C(=O)c2ccccc2C1(O)c1ccc(Cl)cc1 (centres undefined)	94.4 µM (inactive)	35.6 µM (inactive)	31.6 µM (inactive)	75.5 µM (inactive)	24.4 µM (inactive)	> 100 µM (inactive)	79.8 µM (inactive)	46 µM (inactive)	17.7 µM (inactive)	> 100 µM (inactive)	94 µM (inactive)	30 µM (inactive)	–	24.7 µM (inactive)	> 100 µM (inactive)	59.8 µM (inactive)	> 100 µM (inactive)	59.4 µM (inactive)	64.9 µM (inactive)	> 100
CCOC(=O)c1sc(N/N=C2\NC(=O)/C(=C/c3ccc([N+](=O)[O-])cc3)S2)nc1C	35.3 µM (inactive)	25.1 µM (inactive)	16.8 µM (inactive)	15.6 µM (inactive)	31.4 µM (inactive)	26.1 µM (inactive)	27.5 µM (inactive)	15.5 µM (inactive)	15.1 µM (inactive)	16.9 µM (inactive)	32.1 µM (inactive)	22.8 µM (inactive)	–	25.6 µM (inactive)	18.7 µM (inactive)	15.1 µM (inactive)	30.4 µM (inactive)	28.8 µM (inactive)	26.1 µM (inactive)	19.7
